{"source": "patent US20060018921A1", "about": "“Histone deacetylase inhibitors and cognitive applications” (priority 2004, published 2006)", "key": {"histone H3 (Lys14)": {"system": "histone H3 (Lys14)", "assay": "Acetylation of histone H3, acute hippocampal slices, area CA1", "conditions": "for histone H3 acetylation: slices treated 1 h, FSK 50 μM with 100 μM Ro20-1724, 4αP 3 μM, dFSK 50 μM with 100 μM Ro20-1724, U0126 20 μM, TSA 1.65 μM; for histone H3 acetylation / effect of PDA on histone H3 acetylation after pretreatment with MEK inhibitor: PDA 3 μM; for histone H3 acetylation / effect of NMDA on acetylation of histone H3 after pretreatment with MEK inhibitor / effect of FSK on histone H3 acetylation after pretreatment with MEK inhibitor / effect of PDA on histone H3 acetylation after pretreatment with MEK inhibitor: PD98059 50 μM; for effect of NMDA on acetylation of histone H3 after pretreatment with MEK inhibitor / effect of FSK on histone H3 acetylation after pretreatment with MEK inhibitor / effect of PDA on histone H3 acetylation after pretreatment with MEK inhibitor: U0126 20 μM; for effect of NMDA on acetylation of histone H3 after pretreatment with MEK inhibitor: 100 μM NMDA 10 min; for effect of FSK on histone H3 acetylation after pretreatment with MEK inhibitor: FSK 50 μM with 100 μM Ro20-1724"}, "ERK1": {"system": "ERK1", "assay": "P-ERK1 western blot, acute hippocampal slices, area CA1", "conditions": "slices treated 1 h; data not shown"}, "ERK2": {"system": "ERK2", "assay": "P-ERK2 western blot, acute hippocampal slices, area CA1", "conditions": "for levels of P-ERK2: slices treated 1 h, FSK 50 μM with 100 μM Ro20-1724, U0126 20 μM, 4αP 3 μM, dFSK 50 μM with 100 μM Ro20-1724, TSA; for levels of P-ERK2 / effect of PDA on P-ERK2 after pretreatment with MEK inhibitor: PDA 3 μM; for levels of P-ERK2 / effect of NMDA on P-ERK2 after pretreatment with MEK inhibitor / effect of FSK on P-ERK2 after pretreatment with MEK inhibitor / effect of PDA on P-ERK2 after pretreatment with MEK inhibitor: PD98059 50 μM; for effect of NMDA on P-ERK2 after pretreatment with MEK inhibitor / effect of FSK on P-ERK2 after pretreatment with MEK inhibitor / effect of PDA on P-ERK2 after pretreatment with MEK inhibitor: U0126 20 μM; for effect of NMDA on P-ERK2 after pretreatment with MEK inhibitor: 100 μM NMDA 10 min; for effect of FSK on P-ERK2 after pretreatment with MEK inhibitor: FSK 50 μM with 100 μM Ro20-1724"}, "[1]": {"system": "Schaffer-collateral synapses", "conditions": "previous studies, Nguyen et al., 1994; cited from earlier work"}, "[2]": {"system": "histone H4 (Lys5/Lys8/Lys12/Lys16)", "assay": "Acetylation of histone H4, acute hippocampal slices, area CA1", "conditions": "100 μM NMDA 10 min, with or without U0126 or PD98059 pretreatment"}, "[3]": {"conditions": "100 μM NMDA in Mg++-free ACSF for 10 min"}}, "note": "Entries after “also recorded” stand apart in the source; their conditions may differ. Starred links: 1 amine or outer side, 2 acyl side, 3 side chain; linkers in the order of their positions; H or OH if unused. Positions of bridges follow the written chain, without caps; N, C: chain ends. Non-standard residues stand in square brackets, D forms with d. Residues, ends and D or L forms follow the SMILES beside them. Chains are numbered I, II in the order given. Actinocin(9to1) = Cc1c2oc3c(C)ccc(C(=O)[*:1])c3nc-2c(C(=O)[*:2])c(N)c1=O; NMeV = CN[C@H](C(=O)O)C(C)C; Sar = CNCC(=O)O", "data": [{"smiles": "CCCCCCCCCC(=O)O[C@@H]1[C@@H](C)[C@@]2(O)[C@@H](C=C(CO)C[C@@]3(O)C(=O)C(C)=C[C@@H]23)[C@@H]2C(C)(C)[C@]12OC(=O)CCCCCCCCC", "note": "[4αP, 4-α-phorbol 12,13-didecanoate]", "values": [{"measurement": "histone H3 acetylation", "setting": "histone H3 (Lys14)", "result": "no effect on H3 acetylation"}, {"measurement": "histone H3 acetylation", "setting": "histone H3 (Lys14); listed as 4 αP", "result": "no affect on the acetylation of histone H3"}, {"measurement": "levels of P-ERK1", "setting": "ERK1", "result": "no affect"}, {"measurement": "levels of P-ERK2", "setting": "ERK2", "result": "no effect on P-ERK2"}, {"measurement": "levels of P-ERK2", "setting": "ERK2; listed as 4 αP", "result": "no affect"}]}, {"smiles": "OC[C@H]1O[C@@H](n2cnc3cc(Cl)c(Cl)cc32)[C@H](O)[C@@H]1O", "note": "[DRB, 5,6-dichlorobenzimidazole riboside]", "values": [{"measurement": "basal synaptic transmission", "setting": "[1]", "result": "no effect on basal synaptic transmission"}]}, {"smiles": "CN[C@H](CC(=O)O)C(=O)O", "note": "[NMDA]", "values": [{"measurement": "acetylation of histone H3 in area CA1", "setting": "histone H3 (Lys14); [3]", "result": "increased acetylation of histone H3; also recorded: significantly increased"}, {"measurement": "acetylation of histone H4 in area CA1", "setting": "[2]", "result": "no affect on acetylation of histone H4"}, {"measurement": "phosphorylation of ERK2 in area CA1", "setting": "ERK2; [3]", "result": "induced significant increases in P-ERK2; also recorded: significantly increased"}]}, {"smiles": "COc1cccc(-c2cc(=O)c3ccccc3o2)c1N", "note": "[PD98059]", "values": [{"measurement": "effect of NMDA on acetylation of histone H3 after pretreatment with MEK inhibitor", "setting": "histone H3 (Lys14)", "result": "blocked; also recorded: inhibited the affect of NMDA on acetylation of histone H3"}, {"measurement": "effect of FSK on histone H3 acetylation after pretreatment with MEK inhibitor", "setting": "histone H3 (Lys14)", "result": "blocked; also recorded: inhibited"}, {"measurement": "effect of PDA on histone H3 acetylation after pretreatment with MEK inhibitor", "setting": "histone H3 (Lys14)", "result": "blocked; also recorded: inhibited"}, {"measurement": "histone H3 acetylation", "setting": "histone H3 (Lys14)", "result": "no effect on basal levels of acetylation of histone H3"}, {"measurement": "effect of NMDA on P-ERK2 after pretreatment with MEK inhibitor", "setting": "ERK2", "result": "blocked; also recorded: inhibited the affect of NMDA on P-ERK2"}, {"measurement": "effect of FSK on P-ERK2 after pretreatment with MEK inhibitor", "setting": "ERK2", "result": "blocked"}, {"measurement": "effect of PDA on P-ERK2 after pretreatment with MEK inhibitor", "setting": "ERK2", "result": "blocked"}, {"measurement": "levels of P-ERK2", "setting": "ERK2", "result": "diminished"}]}, {"smiles": "CC(=O)O[C@@H]1[C@@H](C)[C@@]2(O)[C@@H](C=C(CO)C[C@]3(O)C(=O)C(C)=C[C@@H]23)[C@@H]2C(C)(C)[C@]12OC(C)=O", "note": "[PDA, phorbol 12,13-diacetate]", "values": [{"measurement": "histone H3 acetylation", "setting": "histone H3 (Lys14)", "result": "significantly increased acetylation of histone H3"}, {"measurement": "levels of P-ERK1", "setting": "ERK1", "result": "significantly increased"}, {"measurement": "levels of P-ERK2", "setting": "ERK2", "result": "significantly increased; also recorded: significant increases in levels of P-ERK2"}]}, {"smiles": "N#CC(=C(/N)Sc1ccccc1N)/C(C#N)=C(\\N)Sc1ccccc1N", "note": "[U0126]", "values": [{"measurement": "effect of NMDA on acetylation of histone H3 after pretreatment with MEK inhibitor", "setting": "histone H3 (Lys14)", "result": "blocked; also recorded: inhibited the affect of NMDA on acetylation of histone H3"}, {"measurement": "effect of FSK on histone H3 acetylation after pretreatment with MEK inhibitor", "setting": "histone H3 (Lys14)", "result": "blocked; also recorded: inhibited"}, {"measurement": "effect of PDA on histone H3 acetylation after pretreatment with MEK inhibitor", "setting": "histone H3 (Lys14)", "result": "blocked; also recorded: inhibited"}, {"measurement": "histone H3 acetylation", "setting": "histone H3 (Lys14)", "result": "no effect on basal levels of acetylation of histone H3"}, {"measurement": "effect of NMDA on P-ERK2 after pretreatment with MEK inhibitor", "setting": "ERK2", "result": "blocked; also recorded: inhibited the affect of NMDA on P-ERK2"}, {"measurement": "effect of FSK on P-ERK2 after pretreatment with MEK inhibitor", "setting": "ERK2", "result": "blocked"}, {"measurement": "effect of PDA on P-ERK2 after pretreatment with MEK inhibitor", "setting": "ERK2", "result": "blocked"}, {"measurement": "levels of P-ERK2", "setting": "ERK2", "result": "diminished"}]}, {"smiles": "Cc1c2oc3c(C)ccc(C(=O)N[C@@H]4C(=O)N[C@H](C(C)C)C(=O)N5CCC[C@H]5C(=O)N(C)CC(=O)N(C)[C@@H](C(C)C)C(=O)O[C@@H]4C)c3nc-2c(C(=O)N[C@@H]2C(=O)N[C@H](C(C)C)C(=O)N3CCC[C@H]3C(=O)N(C)CC(=O)N(C)[C@@H](C(C)C)C(=O)O[C@@H]2C)c(N)c1=O", "note": "[actinomycin D, Actinomycin D] (I: T[dV]P[Sar][NMeV] / II: T[dV]P[Sar][NMeV]; ester I:1-I:C, II:1-II:C; linker I:N-II:N via Actinocin(9to1))", "values": [{"measurement": "basal synaptic transmission", "setting": "[1]", "result": "no effect on synaptic transmission"}]}, {"smiles": "C=C[C@@]1(C)CC(=O)[C@@H]2[C@@]3(C)CCCC(C)(C)[C@@H]3[C@H](O)[C@H](OC(C)=O)[C@@]2(C)O1", "note": "[dFSK, 1,9 dideoxyforskolin]", "values": [{"measurement": "histone H3 acetylation", "setting": "histone H3 (Lys14)", "result": "no affect on the acetylation of histone H3; also recorded: no effect on H3 acetylation"}, {"measurement": "levels of P-ERK1", "setting": "ERK1", "result": "no affect"}, {"measurement": "levels of P-ERK2", "setting": "ERK2", "result": "no affect; also recorded: no effect on P-ERK2"}]}]}
